Values after ≈ are worked out from the molar mass of the structure shown. Where two headings read alike, the source gives them in different places.
Tests used:
[1] = test system: Brine shrimp, Artemia salina; details: in vivo
Spodoptera litura [2] = assay: Antifeedant activity against late third instar of Spodoptera litura (leaf disk, oral feeding); format: in vivo
Aedes aegypti = format: in vivo; details: IV instar larvae, 24 hours
Helicoverpa armigera = format: in vivo; details: topical
Spodoptera litura [3] = format: in vivo; details: topical

Structure (SMILES): CC[C@@]1(O)C(=O)OCc2c1cc1n(c2=O)Cc2cc3ccccc3nc2-1 [Chamtothecin, reference compound]
- LC50 ± S.E. [1]: 2.53 ± 0.43 µg/mL (≈ 7.26 µM)

Structure (SMILES): C/C=C(\C)C(=O)O[C@H]1C[C@@H](OC(C)=O)[C@@]2(C(=O)OC)CO[C@H]3[C@@H](O)[C@@](C)([C@]45O[C@@]4(C)[C@H]4C[C@@H]5O[C@@H]5OC=C[C@@]54O)[C@H]4[C@]1(CO[C@]4(O)C(=O)OC)[C@@H]32 [Azadiractin, reference compound]
- Concentration required for 50% leaf protection EC50 ± S.E. (Spodoptera litura [2]; in vivo): 6.34 ± 1.77 μg/cm^2

Structure (SMILES): CCCCOC(=S)SCSC(=S)OCCCC [Methylene bis (n-butylxanthate), Methylene Bis(n-butylxanthate)]
- LC50 ± S.E. (Aedes aegypti): 5.33 ± 0.97 µg/mL (≈ 17.1 µM)
- A.I. (Anti-feedent Index) (Spodoptera litura [2]; 10 μg/sq. cm.): 5.50
- Percent leaf consumption 12 hr (Spodoptera litura [2]; 10 μg/sq. cm.): 48.55%
- Percent leaf consumption 24 hr (Spodoptera litura [2]; 10 μg/sq. cm.): 85.1%
- A.I. (Anti-feedent Index) (Spodoptera litura [2]; 15 μg/sq. cm.): 22.27
- Percent leaf consumption 12 hr (Spodoptera litura [2]; 15 μg/sq. cm.): 35.2%
- Percent leaf consumption 24 hr (Spodoptera litura [2]; 15 μg/sq. cm.): 60.4%
- A.I. (Anti-feedent Index) (Spodoptera litura [2]; 20 μg/sq. cm.): 35.14
- Percent leaf consumption 12 hr (Spodoptera litura [2]; 20 μg/sq. cm.): 22.5%
- Percent leaf consumption 24 hr (Spodoptera litura [2]; 20 μg/sq. cm.): 45.6%
- A.I. (Anti-feedent Index) (Spodoptera litura [2]; 25 μg/sq. cm.): 64.22
- Percent leaf consumption 12 hr (Spodoptera litura [2]; 25 μg/sq. cm.): 3.5%
- Percent leaf consumption 24 hr (Spodoptera litura [2]; 25 μg/sq. cm.): 20.7%
- A.I. (Anti-feedent Index) (Spodoptera litura [2]; 30 μg/sq. cm.): 85.37
- Percent leaf consumption 12 hr (Spodoptera litura [2]; 30 μg/sq. cm.): 0%
- Percent leaf consumption 24 hr (Spodoptera litura [2]; 30 μg/sq. cm.): 7.5%
- Concentration required for 50% leaf protection EC50 ± S.E. (Spodoptera litura [2]; late third instar): 17.11 ± 1.36 μg/cm^2
- Adult emergence: Abnormal adults (Helicoverpa armigera; 20 μg/Insect): 41
- Adult emergence: Intermediates (Helicoverpa armigera; 20 μg/Insect): 17
- Adult emergence: Non emergence (Helicoverpa armigera; 20 μg/Insect): 3
- Adult emergence: Normal adults (Helicoverpa armigera; 20 μg/Insect): 27
- Larval mortality (%) (Helicoverpa armigera; 20 μg/Insect): 7%
- Pupal Formation: Abnormal pupa (Helicoverpa armigera; 20 μg/Insect): 36
- Pupal Formation: Normal pupa (Helicoverpa armigera; 20 μg/Insect): 52
- Pupal Formation: Pupal Mortality (Helicoverpa armigera; 20 μg/Insect): 5
- Adult emergence: Abnormal adults (Helicoverpa armigera; 35 μg/Insect): 11
- Adult emergence: Intermediates (Helicoverpa armigera; 35 μg/Insect): 18
- Adult emergence: Non emergence (Helicoverpa armigera; 35 μg/Insect): 9
- Adult emergence: Normal adults (Helicoverpa armigera; 35 μg/Insect): 17
- Larval mortality (%) (Helicoverpa armigera; 35 μg/Insect): 12%
- Pupal Formation: Abnormal pupa (Helicoverpa armigera; 35 μg/Insect): 28
- Pupal Formation: Normal pupa (Helicoverpa armigera; 35 μg/Insect): 27
- Pupal Formation: Pupal Mortality (Helicoverpa armigera; 35 μg/Insect): 33
- Adult emergence: Abnormal adults (Helicoverpa armigera; 50 μg/Insect): 9
- Adult emergence: Intermediates (Helicoverpa armigera; 50 μg/Insect): 6
- Adult emergence: Non emergence (Helicoverpa armigera; 50 μg/Insect): 21
- Adult emergence: Normal adults (Helicoverpa armigera; 50 μg/Insect): 8
- Larval mortality (%) (Helicoverpa armigera; 50 μg/Insect): 28%
- Pupal Formation: Abnormal pupa (Helicoverpa armigera; 50 μg/Insect): 32
- Pupal Formation: Normal pupa (Helicoverpa armigera; 50 μg/Insect): 12
- Pupal Formation: Pupal Mortality (Helicoverpa armigera; 50 μg/Insect): 28
- Adult emergence: Abnormal adults (Helicoverpa armigera; 75 μg/Insect): 1
- Adult emergence: Intermediates (Helicoverpa armigera; 75 μg/Insect): 2
- Adult emergence: Non emergence (Helicoverpa armigera; 75 μg/Insect): 24
- Adult emergence: Normal adults (Helicoverpa armigera; 75 μg/Insect): 0
- Larval mortality (%) (Helicoverpa armigera; 75 μg/Insect): 49%
- Pupal Formation: Abnormal pupa (Helicoverpa armigera; 75 μg/Insect): 27
- Pupal Formation: Normal pupa (Helicoverpa armigera; 75 μg/Insect): 0
- Pupal Formation: Pupal Mortality (Helicoverpa armigera; 75 μg/Insect): 24
- Adult emergence: Abnormal adults (Helicoverpa armigera; 100 μg/Insect): 0
- Adult emergence: Intermediates (Helicoverpa armigera; 100 μg/Insect): 2
- Adult emergence: Non emergence (Helicoverpa armigera; 100 μg/Insect): 20
- Adult emergence: Normal adults (Helicoverpa armigera; 100 μg/Insect): 0
- Larval mortality (%) (Helicoverpa armigera; 100 μg/Insect): 61%
- Pupal Formation: Abnormal pupa (Helicoverpa armigera; 100 μg/Insect): 22
- Pupal Formation: Normal pupa (Helicoverpa armigera; 100 μg/Insect): 0
- Pupal Formation: Pupal Mortality (Helicoverpa armigera; 100 μg/Insect): 17
- Adult emergence: Abnormal adults (Spodoptera litura [3]; 5 μg/Insect): 26
- Adult emergence: Intermediates (Spodoptera litura [3]; 5 μg/Insect): 28
- Adult emergence: Non-emergence (Spodoptera litura [3]; 5 μg/Insect): 0
- Adult emergence: Normal adults (Spodoptera litura [3]; 5 μg/Insect): 41
- Larval mortality (%) (Spodoptera litura [3]; 5 μg/Insect): 0%
- Pupal Formation: Abnormal pupa (Spodoptera litura [3]; 5 μg/Insect): 41
- Pupal Formation: Normal pupa (Spodoptera litura [3]; 5 μg/Insect): 59
- Pupal Formation: Pupal Mortality (Spodoptera litura [3]; 5 μg/Insect): 5
- Adult emergence: Abnormal adults (Spodoptera litura [3]; 10 μg/Insect): 22
- Adult emergence: Intermediates (Spodoptera litura [3]; 10 μg/Insect): 34
- Adult emergence: Non-emergence (Spodoptera litura [3]; 10 μg/Insect): 1
- Adult emergence: Normal adults (Spodoptera litura [3]; 10 μg/Insect): 36
- Larval mortality (%) (Spodoptera litura [3]; 10 μg/Insect): 0%
- Pupal Formation: Abnormal pupa (Spodoptera litura [3]; 10 μg/Insect): 48
- Pupal Formation: Normal pupa (Spodoptera litura [3]; 10 μg/Insect): 52
- Pupal Formation: Pupal Mortality (Spodoptera litura [3]; 10 μg/Insect): 8
- Adult emergence: Abnormal adults (Spodoptera litura [3]; 20 μg/Insect): 27
- Adult emergence: Intermediates (Spodoptera litura [3]; 20 μg/Insect): 32
- Adult emergence: Non-emergence (Spodoptera litura [3]; 20 μg/Insect): 2
- Adult emergence: Normal adults (Spodoptera litura [3]; 20 μg/Insect): 24
- Larval mortality (%) (Spodoptera litura [3]; 20 μg/Insect): 0%
- Pupal Formation: Abnormal pupa (Spodoptera litura [3]; 20 μg/Insect): 53
- Pupal Formation: Normal pupa (Spodoptera litura [3]; 20 μg/Insect): 47
- Pupal Formation: Pupal Mortality (Spodoptera litura [3]; 20 μg/Insect): 17
- Adult emergence: Abnormal adults (Spodoptera litura [3]; 35 μg/Insect): 23
- Adult emergence: Intermediates (Spodoptera litura [3]; 35 μg/Insect): 23
- Adult emergence: Non-emergence (Spodoptera litura [3]; 35 μg/Insect): 25
- Adult emergence: Normal adults (Spodoptera litura [3]; 35 μg/Insect): 7
- Larval mortality (%) (Spodoptera litura [3]; 35 μg/Insect): 21%
- Pupal Formation: Abnormal pupa (Spodoptera litura [3]; 35 μg/Insect): 54
- Pupal Formation: Normal pupa (Spodoptera litura [3]; 35 μg/Insect): 25
- Pupal Formation: Pupal Mortality (Spodoptera litura [3]; 35 μg/Insect): 26
- Adult emergence: Abnormal adults (Spodoptera litura [3]; 50 μg/Insect): 6
- Adult emergence: Intermediates (Spodoptera litura [3]; 50 μg/Insect): 8
- Adult emergence: Non-emergence (Spodoptera litura [3]; 50 μg/Insect): 9
- Adult emergence: Normal adults (Spodoptera litura [3]; 50 μg/Insect): 5
- Larval mortality (%) (Spodoptera litura [3]; 50 μg/Insect): 57%
- Pupal Formation: Abnormal pupa (Spodoptera litura [3]; 50 μg/Insect): 38
- Pupal Formation: Normal pupa (Spodoptera litura [3]; 50 μg/Insect): 5
- Pupal Formation: Pupal Mortality (Spodoptera litura [3]; 50 μg/Insect): 24
- Adult emergence: Abnormal adults (Spodoptera litura [3]; 75 μg/Insect): 1
- Adult emergence: Intermediates (Spodoptera litura [3]; 75 μg/Insect): 2
- Adult emergence: Non-emergence (Spodoptera litura [3]; 75 μg/Insect): 25
- Adult emergence: Normal adults (Spodoptera litura [3]; 75 μg/Insect): 0
- Larval mortality (%) (Spodoptera litura [3]; 75 μg/Insect): 72%
- Pupal Formation: Abnormal pupa (Spodoptera litura [3]; 75 μg/Insect): 28
- Pupal Formation: Normal pupa (Spodoptera litura [3]; 75 μg/Insect): 0
- Pupal Formation: Pupal Mortality (Spodoptera litura [3]; 75 μg/Insect): 25
- Adult emergence: Abnormal adults (Spodoptera litura [3]; 100 μg/Insect): 0
- Adult emergence: Intermediates (Spodoptera litura [3]; 100 μg/Insect): 0
- Adult emergence: Non-emergence (Spodoptera litura [3]; 100 μg/Insect): 14
- Adult emergence: Normal adults (Spodoptera litura [3]; 100 μg/Insect): 0
- Larval mortality (%) (Spodoptera litura [3]; 100 μg/Insect): 86%
- Pupal Formation: Abnormal pupa (Spodoptera litura [3]; 100 μg/Insect): 14
- Pupal Formation: Normal pupa (Spodoptera litura [3]; 100 μg/Insect): 0
- Pupal Formation: Pupal Mortality (Spodoptera litura [3]; 100 μg/Insect): 14
